# Results: PubChem BioAssay (NCI)
#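 Following 48 hours of exposure in 96-well plates, responses at five concentrations were used to interpolate endpoints linearly. TGI: concentration producing complete growth inhibition.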
# What was measured:
# Test in all cases: DTP human tumour cell line panel, 48 h
# 786-0 renal = tested on: 786-0 renal
# A498 renal = tested on: A498 renal
# A549 NSCLC = tested on: A549 NSCLC
# ACHN renal = tested on: ACHN renal
# CAKI-1 renal = tested on: CAKI-1 renal
# CCRF-CEM leukemia = tested on: CCRF-CEM leukemia
# COLO 205 colon = tested on: COLO 205 colon
# DU-145 prostate = tested on: DU-145 prostate
# EKVX NSCLC = tested on: EKVX NSCLC
# HCT-116 colon = tested on: HCT-116 colon
# HCT-15 colon = tested on: HCT-15 colon
# HL-60(TB) leukemia = tested on: HL-60(TB) leukemia
# HOP-62 NSCLC = tested on: HOP-62 NSCLC
# HOP-92 NSCLC = tested on: HOP-92 NSCLC
# HS 578T breast = tested on: HS 578T breast
# HT29 colon = tested on: HT29 colon
# IGROV1 ovarian = tested on: IGROV1 ovarian
# K-562 leukemia = tested on: K-562 leukemia
# KM12 colon = tested on: KM12 colon
# LOX IMVI melanoma = tested on: LOX IMVI melanoma
# M14 melanoma = tested on: M14 melanoma
# MCF7 breast = tested on: MCF7 breast
# MDA-MB-231 breast = tested on: MDA-MB-231 breast
# MDA-MB-435 = tested on: MDA-MB-435
# MDA-N = tested on: MDA-N
# MOLT-4 leukemia = tested on: MOLT-4 leukemia
# NCI-H226 lung = tested on: NCI-H226 lung
# NCI-H23 lung = tested on: NCI-H23 lung
# NCI-H460 lung = tested on: NCI-H460 lung
# NCI-H522 lung = tested on: NCI-H522 lung
# NCI/ADR-RES ovarian = tested on: NCI/ADR-RES ovarian
# OVCAR-3 ovarian = tested on: OVCAR-3 ovarian
# OVCAR-4 ovarian = tested on: OVCAR-4 ovarian
# OVCAR-5 ovarian = tested on: OVCAR-5 ovarian
# OVCAR-8 ovarian = tested on: OVCAR-8 ovarian
# PC-3 prostate = tested on: PC-3 prostate
# RPMI-8226 leukemia = tested on: RPMI-8226 leukemia
# SF-268 CNS = tested on: SF-268 CNS
# SF-295 CNS = tested on: SF-295 CNS
# SF-539 CNS = tested on: SF-539 CNS
# SK-MEL-2 melanoma = tested on: SK-MEL-2 melanoma
# SK-MEL-28 melanoma = tested on: SK-MEL-28 melanoma
# SK-MEL-5 melanoma = tested on: SK-MEL-5 melanoma
# SK-OV-3 ovarian = tested on: SK-OV-3 ovarian
# SN12C renal = tested on: SN12C renal
# SNB-19 CNS = tested on: SNB-19 CNS
# SNB-75 CNS = tested on: SNB-75 CNS
# SR leukemia = tested on: SR leukemia
# SW-620 colon = tested on: SW-620 colon
# T-47D breast = tested on: T-47D breast
# TK-10 renal = tested on: TK-10 renal
# U251 CNS = tested on: U251 CNS
# UACC-257 melanoma = tested on: UACC-257 melanoma
# UACC-62 melanoma = tested on: UACC-62 melanoma
# UO-31 renal = tested on: UO-31 renal
# BT-549 breast = tested on: BT-549 breast
# HCC-2998 colon = tested on: HCC-2998 colon
# MALME-3M melanoma = tested on: MALME-3M melanoma
# RXF 393 renal = tested on: RXF 393 renal
smiles,measurement,setting,value
O=C(OC[C@H]1C[C@H]2C(=O)CCC[C@H]2O1)c1ccccc1,TGI,786-0 renal,> 100 µM
same,TGI,A498 renal,> 100 µM
same,TGI,A549 NSCLC,> 100 µM
same,TGI,ACHN renal,> 100 µM
same,TGI,CAKI-1 renal,> 100 µM
same,TGI,CCRF-CEM leukemia,> 100 µM
same,TGI,COLO 205 colon,> 100 µM
same,TGI,DU-145 prostate,> 100 µM
same,TGI,EKVX NSCLC,> 100 µM
same,TGI,HCT-116 colon,> 100 µM
same,TGI,HCT-15 colon,> 100 µM
same,TGI,HL-60(TB) leukemia,> 100 µM
same,TGI,HOP-62 NSCLC,> 100 µM
same,TGI,HOP-92 NSCLC,> 100 µM
same,TGI,HS 578T breast,> 100 µM
same,TGI,HT29 colon,> 100 µM
same,TGI,IGROV1 ovarian,> 100 µM
same,TGI,K-562 leukemia,> 100 µM
same,TGI,KM12 colon,> 100 µM
same,TGI,LOX IMVI melanoma,> 100 µM
same,TGI,M14 melanoma,> 100 µM
same,TGI,MCF7 breast,> 100 µM
same,TGI,MDA-MB-231 breast,> 100 µM
same,TGI,MDA-MB-435,> 100 µM
same,TGI,MDA-N,> 100 µM
same,TGI,MOLT-4 leukemia,> 100 µM
same,TGI,NCI-H226 lung,> 100 µM
same,TGI,NCI-H23 lung,> 100 µM
same,TGI,NCI-H460 lung,> 100 µM
same,TGI,NCI-H522 lung,> 100 µM
same,TGI,NCI/ADR-RES ovarian,> 100 µM
same,TGI,OVCAR-3 ovarian,> 100 µM
same,TGI,OVCAR-4 ovarian,> 100 µM
same,TGI,OVCAR-5 ovarian,> 100 µM
same,TGI,OVCAR-8 ovarian,> 100 µM
same,TGI,PC-3 prostate,> 100 µM
same,TGI,RPMI-8226 leukemia,> 100 µM
same,TGI,SF-268 CNS,> 100 µM
same,TGI,SF-295 CNS,> 100 µM
same,TGI,SF-539 CNS,> 100 µM
same,TGI,SK-MEL-2 melanoma,> 100 µM
same,TGI,SK-MEL-28 melanoma,> 100 µM
same,TGI,SK-MEL-5 melanoma,> 100 µM
same,TGI,SK-OV-3 ovarian,> 100 µM
same,TGI,SN12C renal,> 100 µM
same,TGI,SNB-19 CNS,> 100 µM
same,TGI,SNB-75 CNS,> 100 µM
same,TGI,SR leukemia,> 100 µM
same,TGI,SW-620 colon,> 100 µM
same,TGI,T-47D breast,> 100 µM
same,TGI,TK-10 renal,> 100 µM
same,TGI,U251 CNS,> 100 µM
same,TGI,UACC-257 melanoma,> 100 µM
same,TGI,UACC-62 melanoma,> 100 µM
same,TGI,UO-31 renal,> 100 µM
CCC/C(Cl)=N\OC(=O)Nc1cccc(C(F)(F)F)c1,TGI,786-0 renal,29.5 µM
same,TGI,A498 renal,32 µM
same,TGI,A549 NSCLC,36.1 µM
same,TGI,ACHN renal,29.8 µM
same,TGI,BT-549 breast,24.7 µM
same,TGI,CAKI-1 renal,33.1 µM
same,TGI,CCRF-CEM leukemia,5.67 µM
same,TGI,COLO 205 colon,8.51 µM
same,TGI,DU-145 prostate,17.8 µM
same,TGI,EKVX NSCLC,31.4 µM
same,TGI,HCC-2998 colon,33.4 µM
same,TGI,HCT-116 colon,34.9 µM
same,TGI,HCT-15 colon,18.4 µM
same,TGI,HOP-62 NSCLC,> 100 µM
same,TGI,HS 578T breast,70.2 µM
same,TGI,HT29 colon,50.3 µM
same,TGI,IGROV1 ovarian,32.4 µM
same,TGI,KM12 colon,33.3 µM
same,TGI,LOX IMVI melanoma,19.7 µM
same,TGI,M14 melanoma,32.7 µM
same,TGI,MALME-3M melanoma,26.4 µM
same,TGI,MCF7 breast,30.1 µM
same,TGI,MDA-MB-231 breast,33.8 µM
same,TGI,MDA-N,31.9 µM
same,TGI,MOLT-4 leukemia,13.6 µM
same,TGI,NCI-H226 lung,37.8 µM
same,TGI,NCI-H23 lung,41.1 µM
same,TGI,NCI-H460 lung,35.8 µM
same,TGI,NCI-H522 lung,3.42 µM
same,TGI,NCI/ADR-RES ovarian,> 59.4 µM
same,TGI,OVCAR-3 ovarian,40.2 µM
same,TGI,OVCAR-4 ovarian,38.5 µM
same,TGI,OVCAR-5 ovarian,46.1 µM
same,TGI,OVCAR-8 ovarian,32.3 µM
same,TGI,PC-3 prostate,31.6 µM
same,TGI,RPMI-8226 leukemia,25.8 µM
same,TGI,RXF 393 renal,33.8 µM
same,TGI,SF-268 CNS,67.8 µM
same,TGI,SF-295 CNS,19.5 µM
same,TGI,SF-539 CNS,35.1 µM
same,TGI,SK-MEL-2 melanoma,31.4 µM
same,TGI,SK-MEL-28 melanoma,37.6 µM
same,TGI,SK-MEL-5 melanoma,28.9 µM
same,TGI,SK-OV-3 ovarian,18 µM
same,TGI,SN12C renal,29.7 µM
same,TGI,SNB-19 CNS,> 100 µM
same,TGI,SNB-75 CNS,24.3 µM
same,TGI,SR leukemia,5.93 µM
same,TGI,SW-620 colon,8.66 µM
same,TGI,T-47D breast,55.3 µM
same,TGI,TK-10 renal,28.8 µM
same,TGI,U251 CNS,34.4 µM
same,TGI,UACC-257 melanoma,31.6 µM
same,TGI,UACC-62 melanoma,55.3 µM
same,TGI,UO-31 renal,33.9 µM
